Results taken from patent publication US12174192B2, “Methods for detecting and treating cancers having adenosine pathway activation” (Corvus Pharmaceuticals, Inc., priority 2018, dated 2024).
Entries after “also recorded” stand apart in the source; their conditions may differ.

Columns and labels:
Assay type in all cases: cell-based
PBMCs = assay: CXCL5 protein ELISA in culture supernatants of PBMCs treated with NECA +/- CPI-444; conditions: PBMCs from two human donors; two days after anti-CD3/CD28 activation; DMSO vehicle control
Protocol: Expression of CXCL5 was determined by ELISA 2 days after activation.
FIGS. 2B and 2C show the response of PBMCs from two different donors to NECA+/−CPI-444 treatment. DMSO was used as vehicle control. […] This control helps establish that the induction of CXCL5 is specific to signaling through adenosine receptors.
NECA activation of CXCL5 protein expression was evaluated. PBMCs were harvested from two different human donors. […] CPI-444 (Corvus Pharmaceuticals) is an antagonist of the adenosine A2A receptor. CXCL5 protein in the culture supernatants was evaluated by ELISA two days after activation. CXCL5 expression is activated by NECA. […] This establishes that the induction of CXCL5 is specific to signaling through adenosine receptors.

[1] = test system: human peripheral blood mononuclear cells (PBMCs); assay: RNA sequencing (RNA-Seq) of NECA-treated, anti-CD3/CD28-activated PBMCs
Protocol: RNA purified from normal, healthy human peripheral blood mononuclear cells (PBMCs) treated with 5′-N-ethylcarboxamidoadenosine (NECA) and activated with anti-CD3/CD28 antibody were analyzed by NanoString hybridization-based quantification (NanoString Technologies, Inc.). […] Each dot represents the expression level of a specific gene. Dot shade represents the concentration of NECA used and/or different PBMC donors. […] Data were confirmed by RNA sequencing (RNA-Seq).

[2] = test system: human peripheral blood mononuclear cells (PBMCs); assay: NanoString mRNA quantification in NECA-treated, anti-CD3/CD28-activated PBMCs; conditions: 0.1 μM, 1 μM, and/or 10 μM NECA vs vehicle-treated control
Protocol: RNA purified from normal, healthy human peripheral blood mononuclear cells (PBMCs) treated with 5′-N-ethylcarboxamidoadenosine (NECA) and activated with anti-CD3/CD28 antibody were analyzed by NanoString hybridization-based quantification (NanoString Technologies, Inc.). […] Each dot represents the expression level of a specific gene. Dot shade represents the concentration of NECA used and/or different PBMC donors.

Structure (SMILES): CCNC(=O)[C@H]1O[C@@H](n2cnc3c(N)ncnc32)[C@H](O)[C@@H]1O [NECA, 5′-N-ethylcarboxamidoadenosine]
- CXCL5 protein in culture supernatants (ELISA), effect of NECA (PBMCs): activated; also recorded: dose-dependent increase in CXCL5
- logFC CCL24 expression ([1]; Control (DMSO) vs 0.1 μm NECA): −1.068
- logFC CD93 expression ([1]; Control (DMSO) vs 0.1 μm NECA): 0.9975
- logFC CSF3 expression ([1]; Control (DMSO) vs 0.1 μm NECA): 1.603
- logFC CXCL2 expression ([1]; Control (DMSO) vs 0.1 μm NECA): 1.452
- logFC CXCL3 expression ([1]; Control (DMSO) vs 0.1 μm NECA): 1.694
- logFC CXCL5 expression ([1]; Control (DMSO) vs 0.1 μm NECA): 2.388
- logFC EHF expression ([1]; Control (DMSO) vs 0.1 μm NECA): −0.2753
- logFC EML6 expression ([1]; Control (DMSO) vs 0.1 μm NECA): 0.2117
- logFC EPB41L3 expression ([1]; Control (DMSO) vs 0.1 μm NECA): 1.183
- logFC FUT7 expression ([1]; Control (DMSO) vs 0.1 μm NECA): −0.2135
- logFC HAS1 expression ([1]; Control (DMSO) vs 0.1 μm NECA): 2.059
- logFC IL23A expression ([1]; Control (DMSO) vs 0.1 μm NECA): 0.7971
- logFC INHBA expression ([1]; Control (DMSO) vs 0.1 μm NECA): 0.5196
- logFC KLC4 expression ([1]; Control (DMSO) vs 0.1 μm NECA): 0.216
- logFC LAYN expression ([1]; Control (DMSO) vs 0.1 μm NECA): 0.4228
- logFC MRPL11 expression ([1]; Control (DMSO) vs 0.1 μm NECA): −0.19
- logFC MS4A7 expression ([1]; Control (DMSO) vs 0.1 μm NECA): 0.9319
- logFC NPR1 expression ([1]; Control (DMSO) vs 0.1 μm NECA): 0.7892
- logFC OST4 expression ([1]; Control (DMSO) vs 0.1 μm NECA): −0.2352
- logFC PADI2 expression ([1]; Control (DMSO) vs 0.1 μm NECA): 0.4802
- logFC PTGS2 expression ([1]; Control (DMSO) vs 0.1 μm NECA): 1.184
- logFC SLC7A7 expression ([1]; Control (DMSO) vs 0.1 μm NECA): 0.5935
- logFC SPON1 expression ([1]; Control (DMSO) vs 0.1 μm NECA): 0.3611
- logFC ST6GALNAC2 expression ([1]; Control (DMSO) vs 0.1 μm NECA): 0.5342
- logFC SYTL3 expression ([1]; Control (DMSO) vs 0.1 μm NECA): 0.2894
- logFC WDR83OS expression ([1]; Control (DMSO) vs 0.1 μm NECA): −0.2872
- logFC ZBTB18 expression ([1]; Control (DMSO) vs 0.1 μm NECA): 0.2431
- logFC CCDC60 expression ([1]; Control (DMSO) vs 1 μm NECA): 0.07658
- logFC CD93 expression ([1]; Control (DMSO) vs 1 μm NECA): 1.454
- logFC CSF3 expression ([1]; Control (DMSO) vs 1 μm NECA): 2.802
- logFC CXCL2 expression ([1]; Control (DMSO) vs 1 μm NECA): 2.361
- logFC CXCL3 expression ([1]; Control (DMSO) vs 1 μm NECA): 2.573
- logFC CXCL5 expression ([1]; Control (DMSO) vs 1 μm NECA): 3.451
- logFC EHF expression ([1]; Control (DMSO) vs 1 μm NECA): −0.2522
- logFC EMR3 expression ([1]; Control (DMSO) vs 1 μm NECA): 1.364
- logFC EPB41L3 expression ([1]; Control (DMSO) vs 1 μm NECA): 1.854
- logFC EREG expression ([1]; Control (DMSO) vs 1 μm NECA): 1.89
- logFC FUT7 expression ([1]; Control (DMSO) vs 1 μm NECA): −0.4158
- logFC GPR157 expression ([1]; Control (DMSO) vs 1 μm NECA): 0.9283
- logFC HAS1 expression ([1]; Control (DMSO) vs 1 μm NECA): 3.238
- logFC IL23A expression ([1]; Control (DMSO) vs 1 μm NECA): 1.363
- logFC IL24 expression ([1]; Control (DMSO) vs 1 μm NECA): 2.876
- logFC INHBA expression ([1]; Control (DMSO) vs 1 μm NECA): 0.9638
- logFC LAYN expression ([1]; Control (DMSO) vs 1 μm NECA): 0.5277
- logFC MS4A7 expression ([1]; Control (DMSO) vs 1 μm NECA): 1.535
- logFC OST4 expression ([1]; Control (DMSO) vs 1 μm NECA): −0.1747
- logFC PADI2 expression ([1]; Control (DMSO) vs 1 μm NECA): 0.7173
- logFC PID1 expression ([1]; Control (DMSO) vs 1 μm NECA): 1.729
- logFC PTGS2 expression ([1]; Control (DMSO) vs 1 μm NECA): 2.23
- logFC SLC7A7 expression ([1]; Control (DMSO) vs 1 μm NECA): 0.9514
- logFC SPON1 expression ([1]; Control (DMSO) vs 1 μm NECA): 0.5667
- logFC ST6GALNAC2 expression ([1]; Control (DMSO) vs 1 μm NECA): 0.8306
- logFC TGIF1 expression ([1]; Control (DMSO) vs 1 μm NECA): 0.4769
- logFC ZBTB18 expression ([1]; Control (DMSO) vs 1 μm NECA): 0.3385
- logFC CCNE1 expression ([1]; Control (DMSO) vs 10 μm NECA): −0.4518
- logFC CD93 expression ([1]; Control (DMSO) vs 10 μm NECA): 1.895
- logFC CD300E expression ([1]; Control (DMSO) vs 10 μm NECA): 1.71
- logFC CSF3 expression ([1]; Control (DMSO) vs 10 μm NECA): 3.508
- logFC CXCL2 expression ([1]; Control (DMSO) vs 10 μm NECA): 3.011
- logFC CXCL3 expression ([1]; Control (DMSO) vs 10 μm NECA): 3.106
- logFC CXCL5 expression ([1]; Control (DMSO) vs 10 μm NECA): 3.354
- logFC DFNA5 expression ([1]; Control (DMSO) vs 10 μm NECA): 0.6559
- logFC ECEL1 expression ([1]; Control (DMSO) vs 10 μm NECA): 0.6918
- logFC EPB41L3 expression ([1]; Control (DMSO) vs 10 μm NECA): 2
- logFC GALM expression ([1]; Control (DMSO) vs 10 μm NECA): −0.3189
- logFC GBP6 expression ([1]; Control (DMSO) vs 10 μm NECA): −0.8039
- logFC GPR157 expression ([1]; Control (DMSO) vs 10 μm NECA): 1.139
- logFC HAS1 expression ([1]; Control (DMSO) vs 10 μm NECA): 3.807
- logFC IL5 expression ([1]; Control (DMSO) vs 10 μm NECA): −0.6885
- logFC IL23A expression ([1]; Control (DMSO) vs 10 μm NECA): 1.332
- logFC INHBA expression ([1]; Control (DMSO) vs 10 μm NECA): 1.192
- logFC LAP3 expression ([1]; Control (DMSO) vs 10 μm NECA): −0.4286
- logFC LOC100505585 expression ([1]; Control (DMSO) vs 10 μm NECA): 0.6639
- logFC NID1 expression ([1]; Control (DMSO) vs 10 μm NECA): 1.087
- logFC PADI2 expression ([1]; Control (DMSO) vs 10 μm NECA): 0.9386
- logFC PID1 expression ([1]; Control (DMSO) vs 10 μm NECA): 2.124
- logFC PTGS2 expression ([1]; Control (DMSO) vs 10 μm NECA): 2.349
- logFC RHCG expression ([1]; Control (DMSO) vs 10 μm NECA): 0.5767
- logFC SLC7A7 expression ([1]; Control (DMSO) vs 10 μm NECA): 0.9134
- logFC SPON1 expression ([1]; Control (DMSO) vs 10 μm NECA): 0.568
- logFC ST6GALNAC2 expression ([1]; Control (DMSO) vs 10 μm NECA): 0.876
- logFC CD14 expression [2]: 0.4485
- logFC CD86 expression [2]: 0.3148
- logFC CLEC5A expression [2]: 0.3833
- logFC CXCL1 expression [2]: 0.6909
- logFC CXCL2 expression [2]: 1.093
- logFC CXCL3 expression [2]: 1.101
- logFC CXCL5 expression [2]: 1.338
- logFC CXCL6 expression [2]: 0.6535
- logFC IL1A expression [2]: 0.6367
- logFC IL1B expression [2]: 0.6345
- logFC IL6 expression [2]: 0.7014
- logFC IL8 expression [2]: 0.6411
- logFC IL23A expression [2]: 0.4628
- logFC IL24 expression [2]: 0.5768
- logFC PLAUR expression [2]: 0.5031
- logFC PPBP expression [2]: 0.683
- logFC PTGS2 expression [2]: 0.6892
- logFC SLC11A1 expression [2]: 0.7022
- logFC TBX21 expression [2]: −0.1238
- logFC THBS1 expression [2]: 0.8703
